From article PMC12063173, “Metabolic Profiling of a Mediterranean-Inspired (Poly)phenol-Rich Mixture in the Brain: Perfusion Effect and In Vitro Blood–Brain Barrier Transport Validation” (Journal of Agricultural and Food Chemistry, 2025)
Entries after “also recorded” stand apart in the source; their conditions may differ. Structures can show the parent of a compound that is named as a salt. Where two headings read alike, the source gives them in different places.

What was measured:
[1] = Perfused brain (PB) kinetics of phenolic metabolites after oral capsule; format: in vivo, Sprague–Dawley rats; set-up: AUC0-t PB: concentration or dose not given beside the values; details: for PB versus NPB comparison: perfused versus nonperfused brain; for AUC0-t PB / Cmax PB / MRT0-t PB / T1/2 PB / Tmax PB / Tmax: perfused brain, oral capsule, 0-24 h, n = 3 per time point; for Tmax: male, Sprague-Dawley, rat, 22 mg extract blend per capsule, one capsule per animal
Excerpt: (§1) Statistical analyses were applied depending on the experimental context.

[2] = Targeted metabolomics (UPLC-ESI-QTOF) identification of metabolites in plasma, PB and NPB; details: P plasma, PB perfused brain, NPB nonperfused brain, 1-24 h after oral capsule
Protocol: Adult male Sprague–Dawley rats weighing 250–300 g were purchased from the Animal Experimentation Service of the University of Murcia (Murcia, Spain). […] Based on the experimental design shown in Figure 1, one capsule was administered by gavage to each fasting animal. A total of 40 animals were used in the study. Thirty animals received a capsule containing a mixture of different Mediterranean food extracts, while ten animals received a capsule with microcrystalline cellulose and served as the control group. […] To minimize animal use in accordance with the 3Rs principle, two control animals were sacrificed at each time point (one PB and one NPB). These controls served to identify potential endogenous compounds or background signals not related to the extract administration. All animals were fasted overnight prior to gavage and euthanized with carbon dioxide.
Plasma samples were extracted with ACN:formic acid (98:2, v/v), centrifuged and evaporated in a speed vacuum concentrator (Savant SPD14 0DDA). The evaporated samples were resuspended in 100 μL MeOH and filtered through 0.22 μm regenerated cellulose filters (Minisart Sartorius, Madrid, Spain). Next, half of the animals at each time point were perfused with ice-cold phosphate-buffered saline, and the blood-free brain was dissected out immediately and stored at – 80 °C until analysis, as previously reported.[37],[48]
Approximately 400 mg of brain tissue (perfused or nonperfused) was weighed and extensively washed with cold PBS to avoid external blood contamination. After weighting, the samples were placed in 2 mL screw cap tubes. […] The evaporated samples were resuspended in 100 μL MeOH and filtered through 0.22 μm regenerated cellulose filters.
We performed a targeted metabolomic analysis using an ultrahigh-performance liquid chromatographic system (UPLC) coupled to a quadrupole-time-of-flight (QTOF) mass spectrometer. The phenolic compounds were separated using an Agilent Poroshell 120 column (100 mm × 3 mm, 2.7 μm) and a 5 μL injection volume. […] The flow rate was set constant at 0.4 mL/min. The spectra were acquired in the m/z range from 100 to 1100, in negative polarity mode and an acquisition rate of 1.5 spectra per second. Quantitative data were processed using the Mass HunterQualitative Analysis software (version B.08.00, Agilent). A target screening strategy was applied for the qualitative analysis of possible metabolites derived from the consumption of the Mediterranean blend. […] These compounds encompass derived metabolites conjugated (glucuronides, sulfates, and sulfoglucuronides, among others). The exact mass of the proposed compound was extracted using an extraction window of 0.01 m/z. Metabolite quantification was performed by integrating the peak areas of their extracted ion chromatograms (EICs). Compounds with available standards were quantified using calibration curves derived from the respective standards, while other metabolites were semiquantified based on their peak area values.

[3] = Nonperfused brain (NPB) kinetics of phenolic metabolites after oral capsule; format: in vivo, Sprague–Dawley rats; set-up: AUC0-t NPB: concentration or dose not given beside the values; details: nonperfused brain, oral capsule, 0-24 h, n = 3 per time point
Excerpt: as §1

[4] = system: human brain microvascular endothelial cells (HBMECs); assay: In vitro blood–brain barrier transport (Transwell); format: in vitro ADME; details: 2.5 μM, 2 h
Protocol: The BBB transport model was established using human brain microvascular endothelial cells (HBMECs), following a methodology previously described.[49] Cells were maintained at 37 °C in a humidified environment with 5% CO2. HBMECs were seeded on 12-well Transwell inserts (12 mm, 0.4 μm pore polyester membrane; Corning, Madrid, Spain) and cultured for 6 days to form confluent monolayers suitable for transport studies. Transport assays were carried out in Hanks’ Balanced Salt Solution (HBSS) supplemented with 0.1% fetal bovine serum (FBS, v/v). The cells were exposed on the apical side to individual phenolic metabolites detected in the brain from the animal study, a representative mixture containing equal concentrations of these metabolites, or a physiological mixture reproducing their relative percentages as observed in the brain. All treatments were applied at a final concentration of 2.5 μM for 2 h (Supporting Information, Table S3). The integrity of the cell monolayers was confirmed by measuring transendothelial electrical resistance (TEER) at the start of the experiment (0 h) and after the last time point (2 h) using an EVOM2 Epithelial Volt Ohm Meter (World Precision Instruments, Inc., USA).
Samples from the apical and basolateral compartments were stored at −80 °C for further analysis. Transport of the compounds was evaluated using UPLC-qTOF as described elsewhere,[38] and transendothelial permeability expressed as a percentage of the ratio between the concentration in the basolateral compartment relative to the total concentration in both compartments.
Finally, one-way ANOVA with Tukey’s multiple comparisons test was exclusively applied to in vitro BBB transport experiments. The three tested conditions for each compound (individual compound, a mixture containing equal concentrations of these compounds, or a physiological mixture reproducing their relative percentages as observed in the brain were evaluated. Plots were performed using GraphPad 9.0 (GraphPad Software, Boston, Massachusetts, USA). Statistical significance was set at P < 0.05.
Figure 3 Transport efficiency of phenolic metabolites across the BBB. Human brain microvascular endothelial cells (HBMEC) were seeded onto semipermeable membranes. […] Detailed composition of both mixtures is given in the Supporting Information, Table S3. Media from the upper and lower compartments were collected, and endothelial transport was evaluated by UPLC-qTOF-MS. The transport percentage (%) was determined by the concentration ratio in the lower compartment to the total concentration (upper and lower compartments). All values are presented as mean ± SD from three independent experiments.

[5] = Plasma pharmacokinetics of phenolic metabolites after oral capsule of (poly)phenol-rich Mediterranean extract mixture; details: for AUC0-t plasma / MRT0-t plasma / T1/2 plasma / Tmax plasma: oral capsule, 0-24 h, n = 6 per time point
Protocol: Adult male Sprague–Dawley rats weighing 250–300 g were purchased from the Animal Experimentation Service of the University of Murcia (Murcia, Spain). […] Animals were maintained in a temperature-controlled environment with a 12 h light-dark cycle. […] Based on the experimental design shown in Figure 1, one capsule was administered by gavage to each fasting animal. A total of 40 animals were used in the study. Thirty animals received a capsule containing a mixture of different Mediterranean food extracts, while ten animals received a capsule with microcrystalline cellulose and served as the control group. At each time point (1, 3, 6, 8, and 24 h postadministration), six animals from the extract group were sacrificed, three with transcardial perfusion using saline (PB) and three without perfusion (NPB), to assess the distribution of extract-derived metabolites in plasma and brain. To minimize animal use in accordance with the 3Rs principle, two control animals were sacrificed at each time point (one PB and one NPB). […] All animals were fasted overnight prior to gavage and euthanized with carbon dioxide.
Blood samples collected by cardiac puncture in sodium heparin tubes at each time point after sacrifice were immediately centrifuged at 14,000 × g for 15 min at 4 °C, and the plasma was stored at −80 °C until their analysis. Plasma samples were extracted with ACN:formic acid (98:2, v/v), centrifuged and evaporated in a speed vacuum concentrator (Savant SPD14 0DDA). The evaporated samples were resuspended in 100 μL MeOH and filtered through 0.22 μm regenerated cellulose filters (Minisart Sartorius, Madrid, Spain).
We performed a targeted metabolomic analysis using an ultrahigh-performance liquid chromatographic system (UPLC) coupled to a quadrupole-time-of-flight (QTOF) mass spectrometer. The phenolic compounds were separated using an Agilent Poroshell 120 column (100 mm × 3 mm, 2.7 μm) and a 5 μL injection volume. The mobile phases used were 0.1% formic acid in water (A) and 0.1% formic acid in ACN (B), and the gradient was: 0–3 min, 5–15% B; 3–11 min, 15–30% B; 11–14 min, 30–50% B, 14–16 min, 50–90% B. Finally, the B content was decreased to the initial conditions (5%) in 1 min, and the column re-equilibrated for 4 min. The flow rate was set constant at 0.4 mL/min. The spectra were acquired in the m/z range from 100 to 1100, in negative polarity mode and an acquisition rate of 1.5 spectra per second.

[6] = read-out: Cmax plasma, oral capsule, 0-24 h, n = 6 per time point
[7] = male, Sprague-Dawley, rat, 22 mg extract blend per capsule, one capsule per animal
[8] = male, Sprague-Dawley, rat, po, 22 mg extract blend per capsule, one capsule per animal

| Compound | AUC0-t PB [1] [pmol·h/g] | Cmax PB [1] [pmol/g tissue] | Tmax PB [1] [h] | AUC0-t NPB [3] [pmol·h/g] | Cmax NPB [3] [pmol/g tissue] | Tmax NPB [3] [h] | AUC0-t plasma [5] [µM·h] | MRT0-t plasma [5] [h] | T1/2 plasma [5] [h] | Tmax plasma [5] [h] | Cmax [5, 6] [nM] | occurrence [2] | further results |
| --- | --- | --- | --- | --- | --- | --- | --- | --- | --- | --- | --- | --- | --- |
| COc1ccc(CCC(=O)O)cc1O [3-(3′-hydroxy-4′-methoxyphenyl)propionic acid)] |  |  |  |  |  |  |  |  |  |  |  | PB, NPB, P | PB versus NPB comparison [1]: higher concentrations in PB |
| O=S(=O)(O)Oc1ccc(CCO)cc1 [tyrosol 4-O-sulfate] | 0.9 ± 1.3 | 0.1 ± 0.08 | 2.3 ± 3.2 | 31 ± 43 | 4.7 ± 6.1 | 2.0 ± 1.4 | 0.122 ± 0.116 | 7.15 ± 3.3 | 6.5 ± 1.8 | 1 ± 0 | 20 ± 30 | PB, NPB, P | MRT0-t NPB [3]: 7.4 ± 0.4 h; T1/2 NPB [3]: 4.5 ± 1.1 h; occurrence ([2]; listed as tyrosol 4-sulfate): identified in plasma, perfused brain (PB), and nonperfused brain (NPB) |
| COc1cc(/C=C/C(=O)O)ccc1OS(=O)(=O)O [ferulic acid 4-O-sulfate] | 3.0 ± 0.5 | 0.2 ± 0.1 | 12 ± 11 | 4.8 ± 2.6 | 0.3 ± 0.2 | 1.0 ± 0.0 | 1.114 ± 0.459 | 14 ± 5.1 | 12 ± 6.3 | 4.2 ± 1.6 | 129 ± 107 | PB, NPB, P | PB versus NPB comparison [1]: significantly lower AUC values in PB compared to NPB; plasma concentration relative to p-coumaric acid 4-O-sulfate [5]: approximately 3 fold |
| COc1cc(CCO)ccc1OS(=O)(=O)O [homovanillic alcohol sulfate] |  |  |  |  |  |  |  |  |  |  |  | PB, NPB, P | PB versus NPB comparison [1]: higher concentrations in PB |
| O=C1CCC(Cc2ccc(O)c(OS(=O)(=O)O)c2)O1 (stereo not shown) [5-(3,4-dihydroxyphenylvalerolactone) sulfate] |  |  |  |  |  |  | 0.113 ± 0.078 | 31 ± 44 | 19 ± 29 | 4.5 ± 1.7 | 12.1 ± 5 | undetectable in both PB and NPB | occurrence ([2]; listed as 5-(3,4-dihydroxyphenyl)valerolactone sulfate): exclusively detected in plasma |
| hydroxyphenyl propionic acid sulfate [hydroxyphenyl propionic acid sulfate peak-1] |  |  |  |  |  |  |  |  |  |  |  | PB, NPB, P |  |
| O=C(O)CCc1ccccc1O [3-(2-hydroxyphenyl) propionic acid] | 1.8 ± 2.2 | 0.6 ± 0.5 |  | 1.1 ± 0.8 | 0.3 ± 0.04 |  |  |  |  |  |  | PB, NPB, P | Tmax [1]: 9 ± 1.4 h; Tmax [3, 7]: 3.3 ± 4 h; occurrence ([2]; listed as 3-(2-hydroxyphenyl)propionic acid): consistently detected in plasma and brain at all time points; AUC(0-t) [5, 8]: 0.213 ± 0.053 µM·h; Cmax [5, 8]: 20 ± 11 nM; MRT last [5, 8]: 8.89 h; Tmax [5, 8]: 10 h; half-life [5, 8]: 8.26 h |
| hydroxyphenylacetic acid sulfate |  |  |  |  |  |  |  |  |  |  |  | PB, NPB, P |  |
| O=C(O)c1ccc(O)cc1O [2,4-dihydroxybenzoic acid] | 44 ± 17 | 4.3 ± 2.8 |  | 92 ± 31 | 10 ± 1.2 |  |  |  |  |  |  | consistently detected in plasma and brain at all time points; also recorded: PB, NPB, P | Tmax [1]: 10 ± 12 h; PB versus NPB comparison [1]: significantly lower AUC values in PB compared to NPB; Tmax [3, 7]: 14 ± 15 h; MRT last ([3]; male, Sprague-Dawley, rat, 22 mg extract blend per capsule, one capsule per animal, read-out: MRT0-t NPB): 7.9 ± 1.1 h; half-life ([3]; male, Sprague-Dawley, rat, 22 mg extract blend per capsule, one capsule per animal, read-out: T1/2 NPB (converted)): 5.4 ± 3.6 h; concentration in plasma (approximate) [5]: around 500 nM; AUC(0-t) [5, 8]: 6.42 ± 1.92 µM·h; Cmax [5, 8]: 534 ± 211 nM; MRT last [5, 8]: 22 ± 11 h; Tmax [5, 8]: 12 ± 11 h; half-life [5, 8]: 14 ± 6 h |

More lines, main results first:

| AUC0-t PB [1] [pmol·h/g] | Cmax PB [1] [pmol/g tissue] | Tmax PB [1] [h] | AUC0-t NPB [3] [pmol·h/g] | Cmax NPB [3] [pmol/g tissue] | Tmax NPB [3] [h] | AUC0-t plasma [5] [µM·h] | MRT0-t plasma [5] [h] | T1/2 plasma [5] [h] | Tmax plasma [5] [h] | Cmax [5, 6] [nM] | Compound | occurrence [2] | further results |
| --- | --- | --- | --- | --- | --- | --- | --- | --- | --- | --- | --- | --- | --- |
| 4.7 ± 1.8 | 1.0 ± 0.7 | 3.0 ± 0.1 | 3.32 | 0.24 | 3.00 | 0.282 ± 0.332 | 13 ± 8.8 | 8.3 ± 4.9 | 8.6 ± 8.9 | 22 ± 21 | O=C(O)C=Cc1ccc(O)c(OS(=O)(=O)O)c1 [caffeic acid 3-O-sulfate] | PB, NPB, P | MRT0-t PB [1]: 8.7 ± 7.3 h; T1/2 PB [1]: 5.2 ± 5.7 h; transport percentage, individual compounds ([4]; HBMEC monolayer, lower compartment / total concentration): exceeding 20%; transport efficiency in both mixtures and as individual molecules ([4]; HBMEC): relatively consistent transport efficiencies |
|  |  |  |  |  |  | 0.011 ± 0.0013 | 23.48 | 14.80 | 5.7 ± 2.7 | 2.7 ± 0.9 | COc1ccc(C2CC(=O)c3c(O)cc(O)cc3O2)cc1O[C@@H]1O[C@H](C(=O)O)[C@@H](O)[C@H](O)[C@H]1O (stereo partly shown) [hesperetin 3′-O-glucuronide] | no detectable levels in PB or NPB |  |
|  |  |  |  |  |  | 0.036 ± 0.012 | 11 ± 5.8 | 7.4 ± 3.4 | 4.2 ± 2.8 | 4 ± 0.7 | COc1ccc([C@@H]2CC(=O)c3c(O)cc(O[C@@H]4O[C@H](C(=O)O)[C@@H](O)[C@H](O)[C@H]4O)cc3O2)cc1O [hesperetin 7-O-glucuronide] | no detectable levels in PB or NPB |  |
| 16 ± 7.8 | 3.4 ± 3.1 | 2.7 ± 2.9 | 60 ± 8.4 | 9.7 ± 5.7 | 3.0 ± 0.0 | 1.432 ± 0.648 | 4.3 ± 1.0 | 4.0 ± 2.3 | 1.4 ± 0.9 | 303 ± 45 | O=S(=O)(O)Oc1cc(CCO)ccc1O [hydroxytyrosol 3-O-sulfate] | PB, NPB, P | MRT0-t PB [1]: 11 ± 5.9 h; T1/2 PB [1]: 7.3 ± 3.6 h; MRT0-t NPB [3]: 7.1 ± 3.1 h; T1/2 NPB [3]: 7.0 ± 0.7 h; occurrence ([2]; listed as hydroxytyrosol 3-sulfate): identified in plasma, perfused brain (PB), and nonperfused brain (NPB) |
|  |  |  |  |  |  | 0.077 ± 0.031 | 9.0 ± 2.5 | 6.0 ± 1.6 | 4.5 ± 1.7 | 9.6 ± 4.5 | O=C(O)CCc1ccc(O)c(OS(=O)(=O)O)c1 [dihydrocaffeic acid 3-O-sulfate] | exclusively detected in plasma |  |
| 52 ± 30 | 4.8 ± 1.5 | 2.3 ± 2.5 | 84 ± 22 | 6.3 ± 2.6 | 2.3 ± 1.2 | 0.793 ± 0.403 | 3.4 ± 0.5 | 3.0 ± 0.6 | 1 ± 0 | 192 ± 76 | O=S(=O)(O)Oc1ccc(CCO)cc1O [hydroxytyrosol 4′-O-sulfate] | PB, NPB, P | MRT0-t PB [1]: 18 ± 14 h; T1/2 PB [1]: 12 ± 8.9 h; MRT0-t NPB [3]: 26 ± 22 h; T1/2 NPB [3]: 18 ± 14 h; occurrence ([2]; listed as hydroxytyrosol 4′-sulfate): identified in plasma, perfused brain (PB), and nonperfused brain (NPB) |
